# Test results reported in ChEMBL document CHEMBL3124876, “A perylene derivative regulates HIF-1α and Stat3 signaling pathways” (Bioorg Med Chem, 2014).
# Calls of active or inactive are those of the source. The rule behind the calls is not given here.
# How the values were obtained:
# [1] = target: Hypoxia-inducible factor 1-alpha (Homo sapiens) (UniProt Q16665); assay: Inhibition of HIF-1 alpha in human PANC1 cells after 3 hrs by Western blotting analysis in hypoxia condition; assay type: cell-based; conditions: PANC-1
# [2] = target: Signal transducer and activator of transcription 3 (Homo sapiens) (UniProt P40763); assay: Inhibition of IL6-induced STAT3 phosphorylation in human PANC1 cells after 3 hrs by Western blotting analysis in hypoxia condition; assay type: cell-based; conditions: PANC-1
# MDA-MB-231 [3] = assay: Antitumor activity against human MDA-MB-231 cells xenografted in Balb nu/nu mouse assessed as reduction in tumor growth at 10 mg/kg, ip administered every other day for 10 days; assay type: functional, organism-based; design: dose 10 mg/kg
# [4] = target: Signal transducer and activator of transcription 3 (Homo sapiens) (UniProt P40763); assay: Inhibition of Stat3 in human MDA-MB-231 cells assessed as inhibition of Stat3 phosphorylation at 10 uM after 18 hrs by Western blotting analysis; assay type: cell-based
# [5] = target: Hypoxia-inducible factor 1-alpha (Homo sapiens) (UniProt Q16665); assay: Inhibition of HIF-1alpha in human MDA-MB-231 cells at 10 uM after 18 hrs by Western blotting analysis in hypoxia condition; assay type: cell-based
# MDA-MB-231 [6] = assay: Anticancer activity in human MDA-MB-231 cells assessed as reduction of total Stat3 level at 10 uM after 18 hrs by Western blotting analysis; assay type: functional, cell-based
# MCF7 = assay: Induction of apoptosis in human MCF7 cells up to 20 uM by MTT assay; assay type: functional, cell-based
# [7] = target: Signal transducer and activator of transcription 3 (Homo sapiens) (UniProt P40763); assay: Inhibition of Stat3 phosphorylation in human MDA-MB-231 cells assessed as inhibition of c-Myc expression at 1 to 20 uM by Western blotting analysis; assay type: cell-based
# [8] = target: Signal transducer and activator of transcription 3 (Homo sapiens) (UniProt P40763); assay: Inhibition of Stat3 phosphorylation in human MDA-MB-231 cells at 1 to 20 uM by Western blotting analysis; assay type: cell-based
# [9] = target: Hypoxia-inducible factor 1-alpha (Homo sapiens) (UniProt Q16665); assay: Inhibition of HIF-1 alpha in human MDA-MB-231 cells at 1 to 20 uM by Western blotting analysis; assay type: cell-based
# Homo sapiens = species: Homo sapiens; assay: Inhibition of telomerase (unknown origin)
# Sequence of Hypoxia-inducible factor 1-alpha (Homo sapiens) (Q16665 whole entry, looked up): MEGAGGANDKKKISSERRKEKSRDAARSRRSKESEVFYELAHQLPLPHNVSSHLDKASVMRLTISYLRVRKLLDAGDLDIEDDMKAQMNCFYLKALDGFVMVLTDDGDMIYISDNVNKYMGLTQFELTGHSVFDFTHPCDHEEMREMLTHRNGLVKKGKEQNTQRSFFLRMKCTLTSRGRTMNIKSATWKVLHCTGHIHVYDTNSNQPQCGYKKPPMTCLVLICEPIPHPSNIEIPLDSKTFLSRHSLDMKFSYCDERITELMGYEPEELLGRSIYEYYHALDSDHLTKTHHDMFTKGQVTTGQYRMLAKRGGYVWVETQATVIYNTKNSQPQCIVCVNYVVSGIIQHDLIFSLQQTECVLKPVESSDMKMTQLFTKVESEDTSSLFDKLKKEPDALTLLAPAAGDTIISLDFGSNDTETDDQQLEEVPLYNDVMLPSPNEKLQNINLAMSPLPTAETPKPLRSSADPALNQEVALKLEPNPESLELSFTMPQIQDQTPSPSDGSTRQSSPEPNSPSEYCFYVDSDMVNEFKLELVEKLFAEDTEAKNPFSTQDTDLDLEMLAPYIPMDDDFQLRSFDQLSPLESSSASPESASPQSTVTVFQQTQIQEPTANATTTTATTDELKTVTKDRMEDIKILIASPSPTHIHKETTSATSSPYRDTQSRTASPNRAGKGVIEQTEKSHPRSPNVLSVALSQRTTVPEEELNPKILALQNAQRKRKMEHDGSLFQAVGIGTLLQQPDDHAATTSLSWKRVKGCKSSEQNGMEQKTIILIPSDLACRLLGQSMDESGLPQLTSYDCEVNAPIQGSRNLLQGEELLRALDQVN
# Sequence of Signal transducer and activator of transcription 3 (Homo sapiens) (P40763 whole entry): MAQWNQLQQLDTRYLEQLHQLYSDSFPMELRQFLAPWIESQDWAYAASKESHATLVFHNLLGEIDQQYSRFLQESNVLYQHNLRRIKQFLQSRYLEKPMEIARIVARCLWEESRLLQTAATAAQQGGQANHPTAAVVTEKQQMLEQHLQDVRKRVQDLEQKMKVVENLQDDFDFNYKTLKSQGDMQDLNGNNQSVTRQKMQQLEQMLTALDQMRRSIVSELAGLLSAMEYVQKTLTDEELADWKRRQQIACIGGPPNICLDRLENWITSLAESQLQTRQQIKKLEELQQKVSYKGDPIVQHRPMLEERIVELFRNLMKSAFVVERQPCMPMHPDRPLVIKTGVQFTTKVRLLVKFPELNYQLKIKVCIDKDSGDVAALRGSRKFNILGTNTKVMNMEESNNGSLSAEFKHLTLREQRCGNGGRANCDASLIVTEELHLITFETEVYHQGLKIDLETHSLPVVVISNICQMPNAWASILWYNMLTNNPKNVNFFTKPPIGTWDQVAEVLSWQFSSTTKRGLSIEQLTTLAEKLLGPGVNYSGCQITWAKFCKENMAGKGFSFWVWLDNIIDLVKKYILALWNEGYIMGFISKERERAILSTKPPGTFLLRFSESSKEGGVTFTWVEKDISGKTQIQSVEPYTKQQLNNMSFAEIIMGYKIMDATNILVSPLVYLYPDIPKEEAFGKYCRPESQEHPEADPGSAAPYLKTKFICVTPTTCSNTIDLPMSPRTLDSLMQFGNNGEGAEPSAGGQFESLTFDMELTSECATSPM
inhibition [1],inhibition [2],inhibition [4],inhibition [5],inhibition [7],inhibition [8],inhibition [9],inhibition (Homo sapiens),Structure (SMILES),Activity (MDA-MB-231 [3]),Activity (MDA-MB-231 [6]),Activity (MCF7)
inactive,Active,,,,,,,Nc1ccn([C@@H]2O[C@H](COP(=O)(O)O[C@H]3[C@@H](O)[C@H](n4cnc5c(=O)[nH]c(N)nc54)O[C@@H]3COP(=O)(O)O[C@H]3[C@@H](O)[C@H](n4cnc5c(=O)[nH]c(N)nc54)O[C@@H]3COP(=O)(O)O[C@H]3[C@@H](O)[C@H](n4cnc5c(=O)[nH]c(N)nc54)O[C@@H]3COP(=O)(O)O[C@H]3[C@@H](O)[C@H](n4ccc(N)nc4=O)O[C@@H]3COP(=O)(O)O[C@H]3[C@@H](O)[C@H](n4cnc5c(=O)[nH]c(N)nc54)O[C@@H]3COP(=O)(O)O[C@H]3[C@@H](O)[C@H](n4cnc5c(=O)[nH]c(N)nc54)O[C@@H]3COP(=O)(O)O[C@H]3[C@@H](O)[C@H](n4cnc5c(=O)[nH]c(N)nc54)O[C@@H]3COP(=O)(O)O[C@H]3[C@@H](O)[C@H](n4ccc(N)nc4=O)O[C@@H]3COP(=O)(O)O[C@H]3[C@@H](O)[C@H](n4cnc5c(=O)[nH]c(N)nc54)O[C@@H]3COP(=O)(O)O[C@H]3[C@@H](O)[C@H](n4cnc5c(=O)[nH]c(N)nc54)O[C@@H]3COP(=O)(O)O[C@H]3[C@@H](O)[C@H](n4cnc5c(=O)[nH]c(N)nc54)O[C@@H]3COP(=O)(O)O[C@H]3[C@@H](O)[C@H](n4ccc(N)nc4=O)O[C@@H]3COP(=O)(O)O[C@H]3[C@@H](O)[C@H](n4cnc5c(=O)[nH]c(N)nc54)O[C@@H]3COP(=O)(O)O[C@H]3[C@@H](O)[C@H](n4cnc5c(=O)[nH]c(N)nc54)O[C@@H]3COP(=O)(O)O[C@H]3[C@@H](O)[C@H](n4cnc5c(=O)[nH]c(N)nc54)O[C@@H]3COP(=O)(O)O)[C@@H](O)[C@H]2O)c(=O)n1,Active,,
,,inactive,inactive,,,,,CN(CCCN)CCCN1C(=O)c2ccc3c4ccc5c6c(ccc(c7ccc(c2c37)C1=O)c64)C(=O)N(CCCN(C)CCCCN)C5=O,,inactive,
,,inactive,inactive,,,,,NCCCN1C(=O)c2ccc3c4ccc5c6c(ccc(c7ccc(c2c37)C1=O)c64)C(=O)N(CCCN)C5=O,,inactive,
,,inactive,inactive,inactive,inactive,inactive,Active,NCCN1C(=O)c2ccc3c4ccc5c6c(ccc(c7ccc(c2c37)C1=O)c64)C(=O)N(CCN)C5=O,,inactive,inactive
